In ChEMBL document CHEMBL4673349, “Trichodestruxins A-D: Cytotoxic Cyclodepsipeptides from the Endophytic Fungus Trichoderma harzianum” (J Nat Prod, 2020):
Where a name gives a salt, the structure may show the parent alone.

What was measured:
Format in all cases: functional, cell-based
A549 = assay: Cytotoxicity against human A549 cells assessed as reduction in cell viability after 72 hrs by MTT assay; details: A549, 72 h
P388 = assay: Cytotoxicity against mouse p388 cells assessed as reduction in cell viability after 72 hrs by MTT assay; details: P388, 72 h
HT-29 = assay: Cytotoxicity against human HT-29 cells assessed as reduction in cell viability after 72 hrs by MTT assay; details: HT-29, 72 h

Structure (SMILES) | IC50 (A549) | IC50 (P388) | IC50 (HT-29)
C=CC[C@H]1OC(=O)CCNC(=O)[C@H](C)N(C)C(=O)[C@H](C(C)C)N(C)C(=O)[C@H](C(C)C)NC(=O)[C@@H]2[C@@H](C)CCN2C1=O | 15.6 µM | 17 µM | 7.8 µM
CC(C)[C@@H]1NC(=O)[C@@H]2[C@@H](C)CCN2C(=O)[C@@H](C[C@@H](O)CO)OC(=O)CCNC(=O)[C@H](C)N(C)C(=O)[C@H](C(C)C)N(C)C1=O | 8.8 µM | 19.1 µM | 16.7 µM
CC(C)C[C@H]1OC(=O)CCNC(=O)[C@H](C)NC(=O)[C@H](C(C)C)N(C)C(=O)[C@H](C(C)C)NC(=O)[C@@H]2[C@@H](C)CCN2C1=O | 17.5 µM | > 20 µM | > 20 µM
CC(C)C[C@H]1OC(=O)CCNC(=O)[C@H](C)N(C)C(=O)[C@H](C(C)C)N(C)C(=O)[C@H](C(C)C)NC(=O)[C@@H]2[C@@H](C)CCN2C1=O | 10.3 µM | 8.4 µM | 3.4 µM
COc1cccc2c1C(=O)c1c(O)c3c(c(O)c1C2=O)C[C@@](O)(C(=O)CO)C[C@@H]3O[C@H]1C[C@H](N)[C@H](O)[C@H](C)O1 [DOXORUBICIN HYDROCHLORIDE] | 2.3 µM | 0.3 µM | 1.8 µM
